Measurements taken from the CheMixHub viscosity set.
Several values for one entry are separate records, joined by “and”; a condition that tells them apart may be missing. Identical values can stand only once. ± gives the uncertainty stated by the source.

Test: xn = mol fraction of the nth substance listed

NC(N)=O + C[N+](C)(C)CCO.[Cl-]
viscosity
Conditions	100 kPa	101 kPa
293.15 K, x2 = 0.326	1696 ± 100 mPa·s	–
298.15 K, x2 = 0.33	952.7 ± 95 mPa·s	–
298.15 K, x2 = 0.333	750 ± 40 mPa·s and 1264 ± 140 mPa·s	859.5 ± 42 mPa·s
298.15 K, x2 = 0.3333	–	748.1 ± 66 mPa·s
303 K, x2 = 0.3333	–	427.4 ± 32 mPa·s
303.15 K, x1 = 0.7	–	893 ± 35 mPa·s
303.15 K, x2 = 0.326	635.5 ± 33 mPa·s	–
303.15 K, x2 = 0.33	628.9 ± 54 mPa·s	536.9 ± 45 mPa·s
303.15 K, x2 = 0.333	562.7 ± 28 mPa·s	–
303.15 K, x2 = 0.3333	–	511.6 ± 37 mPa·s
308 K, x2 = 0.333	–	402.8 ± 26 mPa·s
308 K, x2 = 0.3333	–	310.5 ± 13 mPa·s
308.15 K, x2 = 0.326	414.6 ± 20 mPa·s	–
308.15 K, x2 = 0.33	421.9 ± 30 mPa·s	–
308.15 K, x2 = 0.333	–	348.2 ± 13 mPa·s
308.15 K, x2 = 0.3333	–	351.5 ± 20 mPa·s
313 K, x2 = 0.333	–	228 ± 7.3 mPa·s
313 K, x2 = 0.3333	–	225.8 ± 8.4 mPa·s
313.15 K, x2 = 0.326	280.7 ± 13 mPa·s	–
313.15 K, x2 = 0.33	314 ± 20 mPa·s	242.5 ± 15 mPa·s
313.15 K, x2 = 0.333	296.3 ± 14 mPa·s	–
313.15 K, x2 = 0.3333	–	243 ± 11 mPa·s
318 K, x2 = 0.3333	–	163.3 ± 5.4 mPa·s
318.15 K, x2 = 0.326	196.4 ± 8.6 mPa·s	–
318.15 K, x2 = 0.33	224.4 ± 11 mPa·s	–
318.15 K, x2 = 0.333	244.7 ± 13 mPa·s	175.1 ± 5 mPa·s
318.15 K, x2 = 0.3333	–	169.6 ± 6.5 mPa·s
323 K, x2 = 0.333	–	105.6 ± 2.8 mPa·s
323 K, x2 = 0.3333	–	121 ± 3.5 mPa·s
323.15 K, x1 = 0.7	–	197 ± 11 mPa·s
323.15 K, x2 = 0.326	142 ± 6 mPa·s	–
323.15 K, x2 = 0.33	161.2 ± 6.4 mPa·s	–
323.15 K, x2 = 0.333	171.5 ± 7.3 mPa·s and 198.4 ± 8.7 mPa·s	–

OCCOCCOCCO + C[N+](C)(C)CCO.[Cl-]
Conditions	viscosity [mPa·s]
298.15 K, 101 kPa, x2 = 0.25	72.3 ± 2.9

CCCCCCCCCCO + Cc1ccc(C)cc1
viscosity [mPa·s], 101 kPa
Conditions	298.15 K	308.15 K
x2 = 0.0806	9.447 ± 0.065	6.565 ± 0.047
x2 = 0.1731	7.145 ± 0.051	5.045 ± 0.038
x2 = 0.2506	5.591 ± 0.041	4.011 ± 0.03
x2 = 0.3197	4.463 ± 0.033	3.242 ± 0.024
x2 = 0.3693	3.779 ± 0.028	2.781 ± 0.021
x2 = 0.4336	3.053 ± 0.023	2.275 ± 0.018
x2 = 0.4929	2.512 ± 0.019	1.9 ± 0.015
x2 = 0.5771	1.908 ± 0.015	1.481 ± 0.012
x2 = 0.662	1.456 ± 0.012	1.153 ± 0.011
x2 = 0.7265	1.2 ± 0.011	0.963 ± 0.009
x2 = 0.7763	1.04 ± 0.01	0.845 ± 0.009
x2 = 0.8293	0.9 ± 0.009	0.744 ± 0.008
x2 = 0.8891	0.776 ± 0.008	0.648 ± 0.008
x2 = 0.9369	0.693 ± 0.008	0.59 ± 0.008

CCOC(=O)OCC + Cc1ccc(C)cc1
viscosity [mPa·s]
Conditions	293.15 K	298.15 K	303.15 K	323.15 K
101 kPa, x1 = 0.0997	0.6494 ± 0.006	0.6068 ± 0.0057	0.5681 ± 0.0053	0.4546 ± 0.0044
101 kPa, x1 = 0.1509	0.6571 ± 0.0061	0.6141 ± 0.0058	0.5733 ± 0.0054	0.4578 ± 0.0045
101 kPa, x1 = 0.2121	0.6663 ± 0.0062	0.6229 ± 0.0059	0.5814 ± 0.0055	0.4633 ± 0.0046
101 kPa, x1 = 0.2979	0.6785 ± 0.0064	0.6347 ± 0.0061	0.5918 ± 0.0057	0.4704 ± 0.0047
101 kPa, x1 = 0.3942	0.693 ± 0.0067	0.6486 ± 0.0064	0.6058 ± 0.0059	0.4794 ± 0.0049
101 kPa, x1 = 0.495	0.7081 ± 0.007	0.6627 ± 0.0066	0.618 ± 0.0062	0.4891 ± 0.0051
101 kPa, x1 = 0.5955	0.7239 ± 0.0073	0.6787 ± 0.007	0.6309 ± 0.0065	0.4973 ± 0.0053
101 kPa, x1 = 0.7004	0.7423 ± 0.0078	0.6948 ± 0.0073	0.6471 ± 0.0068	0.508 ± 0.0055
101 kPa, x1 = 0.8	0.7603 ± 0.0082	0.7126 ± 0.0077	0.6639 ± 0.0072	0.5178 ± 0.0058
101 kPa, x1 = 0.8891	0.7782 ± 0.0086	0.7304 ± 0.0081	0.6786 ± 0.0075	0.5292 ± 0.0061
101.3 kPa, x1 = 0.1027	–	0.607 ± 0.008	–	–
101.3 kPa, x1 = 0.1721	–	0.615 ± 0.008	–	–
101.3 kPa, x1 = 0.2449	–	0.622 ± 0.008	–	–
101.3 kPa, x1 = 0.3566	–	0.636 ± 0.008	–	–
101.3 kPa, x1 = 0.4208	–	0.643 ± 0.008	–	–
101.3 kPa, x1 = 0.4919	–	0.658 ± 0.009	–	–
101.3 kPa, x1 = 0.6427	–	0.68 ± 0.009	–	–
101.3 kPa, x1 = 0.716	–	0.687 ± 0.009	–	–
101.3 kPa, x1 = 0.7162	–	0.687 ± 0.009	–	–
101.3 kPa, x1 = 0.8043	–	0.701 ± 0.009	–	–
101.3 kPa, x1 = 0.9158	–	0.723 ± 0.009	–	–
